Reference: PubChem BioAssay AID1259407 (Chemical Carcinogenesis Research Information System (CCRIS), 2018)
Active and inactive are the calls of the source. How the calls were made is not given here.

Test system: CCRIS mutagenicity, Ames/micronucleus/aberration tests
Experiment: CCRIS mutagenicity studies
Settings: Test System: AMES SALMONELLA TYPHIMURIUM, Method: STANDARD PLATE

Measured: mutagenic call

CC(C)CC(=O)Nc1snc2ccccc12
inactive: Strain/Indicator: TA100, Metabolic Activation: NONE inactive; negative | Strain/Indicator: TA100, Metabolic Activation: S-9 inactive; negative | Strain/Indicator: TA1537, Metabolic Activation: NONE inactive; negative | Strain/Indicator: TA1537, Metabolic Activation: S-9 inactive; negative
